These results are taken from patent US20230108906A1, “SUBSTITUTED BICYCLIC AND TRICYCLIC UREAS AND AMIDES, ANALOGUES THEREOF, AND METHODS USING SAME” (Arbutus Biopharma Corporation, priority 2019, published 2023).

Molecules are shown by their SMILES.

The first test concerns HBV rcDNA in HepDE19 cells. Briefly: HepDE19 assay with bDNA quantitation of HBV rcDNA. Type of test: cell-based, hepatitis B virus (HBV). To be noted: Hepatitis B virus, HepDE19, 168 h, inhibition of rcDNA formation in HepDE19 cells (HepG2 derived), Tet-free medium, 7 day incubation, Quantigene 2.0 bDNA readout, top concentration 25 μM; read-out: DE-19bDNA EC50. The gist of the method:
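HepDE19 cells (HepG2-derived, Tet-regulated HBV) switched to Tet-free medium, then treated 7 days at 37 °C with compound, 8-point titration from 25 μM, 0.5% DMSO. rcDNA quantified by bDNA with HBV probes; EC50/EC90 via 4-parameter fit. Viability (CC50) by CellTiter-Glo ATP on 5,000 cells/well after 4 days.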
For orientation: EC50 means the concentration that produces a half-maximal response. For the compound `CN(C(=O)N1Cc2ccc(F)cc2C1)[C@@H]1COCc2[nH]c(=O)c3cc(F)c(F)cc3c21` [Compound 221, (S)—N-(8,9-Difluoro-6-oxo-1,4,5,6-tetrahydro-2H-pyrano[3,4-c]isoquinolin-1-yl)-5-fluoro-N-methylisoindoline-2-carboxamide], the EC50 stood at 5.9 µM.
As for `CN(C(=O)Nc1ccc(F)c(C#N)c1)C1CS(=O)(=O)Cc2[nH]c(=O)c3cc(F)ccc3c21` (racemic) [Compound 215, 3-(3-Cyano-4-fluorophenyl)-1-(8-fluoro-3,3-dioxido-6-oxo-1,4,5,6-tetrahydro-2H-thiopyrano[3,4-c]isoquinolin-1-yl)-1-methylurea], the EC50 is no less than 25 µM.
`CCN(C(=O)Nc1ccc(F)c(Cl)c1)C1COCc2[nH]c(=O)c3cc(F)ccc3c21` (centres unmarked) [Compound 44, 3-(3-Chloro-4-fluorophenyl)-1-ethyl-1-(8-fluoro-6-oxo-1,4,5,6-tetrahydro-2H-pyrano[3,4-c]isoquinolin-1-yl)urea]: the half-maximal effective concentration (EC50) came out at 0.01 µM.
With `CC(C)CN(C(=O)Nc1ccc(F)c(Cl)c1)C1CCc2[nH]c(=O)c3ccccc3c21` (centres unmarked) [Compound 13, 3-(3-Chloro-4-fluorophenyl)-1-isobutyl-1-(5-oxo-2,3,4,5-tetrahydro-1H-cyclopenta[c]isoquinolin-1-yl)urea], the half-maximal effective concentration (EC50) turned out to be 1.3 µM.
The same measure, in the same setting: to `CN(C(=O)NC1(C(F)(F)F)CC1)C1CCCc2[nH]c(=O)c3cc(F)c(F)cc3c21` (centres unmarked) [Compound 144, 1-(8,9-Difluoro-6-oxo-1,2,3,4,5,6-hexahydrophenanthridin-1-yl)-1-methyl-3-(1-(trifluoromethyl)cyclopropyl)urea] belongs 20 µM.

The test is the same for the next values; noted with them: inhibition of rcDNA formation in HepDE19 cells (HepG2 derived), Tet-free medium, 7 day incubation, Quantigene 2.0 bDNA readout, top concentration 25 μM; read-out: DE-19bDNA EC50.
As to `CN(C(=O)Nc1ccc(F)c(Cl)c1)C1CNCc2[nH]c(=O)c3cc(F)ccc3c21` (single isomer, unassigned) [Compound 154, 3-(3-Chloro-4-fluorophenyl)-1-(8-fluoro-6-oxo-1,2,3,4,5,6-hexahydrobenzo[c][1,7]naphthyridin-1-yl)-1-methylurea], the 50% effective concentration (EC50) turned out to be 0.03 µM.
In the case of `CN(C(=O)Nc1ccc(F)c(Cl)c1)C1COCc2nc(NCCN)c3cc(F)c(F)cc3c21` (single isomer, unassigned) [Compound 249], the half-maximal effective concentration (EC50) came to 8.3 µM.
`CN(C(=O)Nc1ccc(F)c(C#N)c1)C1C[S+]([O-])Cc2[nH]c(=O)c3cc(F)ccc3c21` (single isomer, unassigned) [Compound 200, 3-(3-Cyano-4-fluorophenyl)-1-(8-fluoro-3-oxido-6-oxo-1,4,5,6-tetrahydro-2H-thiopyrano[3,4-c]isoquinolin-1-yl)-1-methylurea]: the concentration giving a half-maximal response (EC50) was no less than 25 µM.
On to `NS(=O)(=O)CCN(C(=O)Nc1ccc(F)c(Cl)c1)C1COCc2[nH]c(=O)c3cc(F)c(F)cc3c21` (single isomer, unassigned) [Compound 137, 2-(3-(3-Chloro-4-fluorophenyl)-1-(8,9-difluoro-6-oxo-1,4,5,6-tetrahydro-2H-pyrano[3,4-c]isoquinolin-1-yl)ureido)ethane-1-sulfonamide], for which the EC50 worked out at 0.01 µM.
`CN(C(=O)Nc1ccc(F)c(Cl)c1)C1COCc2[nH]c(=O)c3c(c21)COCC3` (single isomer, unassigned) [Compound 83, 3-(3-Chloro-4-fluorophenyl)-1-methyl-1-(5-oxo-4,5,6,7,9,10-hexahydro-1H,3H-dipyrano[3,4-b:3′,4′-d]pyridin-10-yl)urea]: the 50% effective concentration (EC50) is no less than 25 µM.
As to `CNc1nc2c(c3cc(F)c(F)cc13)C(N(C)C(=O)Nc1ccc(F)c(C(F)F)c1)COC2` (single isomer, unassigned) [Compound 236, 1-(8,9-Difluoro-6-(methylamino)-1,4-dihydro-2H-pyrano[3,4-c]isoquinolin-1-yl)-3-(3-(difluoromethyl)-4-fluorophenyl)-1-methylurea], the concentration giving a half-maximal response (EC50) turned out to be 0.01 µM.
Turning to `CC(=O)N1Cc2[nH]c(=O)c3cc(F)ccc3c2C(N(C)C(=O)Nc2ccc(F)c(C#N)c2)C1` (single isomer, unassigned) [Compound 166, 1-(3-Acetyl-8-fluoro-6-oxo-1,2,3,4,5,6-hexahydrobenzo[c][1,7]naphthyridin-1-yl)-3-(3-cyano-4-fluorophenyl)-1-methylurea], the EC50 stood at 11 µM.
Consider `CN1Cc2[nH]c(=O)c3cc(F)ccc3c2C(N(C)C(=O)Nc2ccc(F)c(C#N)c2)C1` (single isomer, unassigned) [Compound 164, 3-(3-Cyano-4-fluorophenyl)-1-(8-fluoro-3-methyl-6-oxo-1,2,3,4,5,6-hexahydrobenzo[c][1,7]naphthyridin-1-yl)-1-methylurea], for which the concentration giving a half-maximal response (EC50) is 1.3 µM.
Still for that read-out and setting: to `CCN(C(=O)Nc1ccc(F)c(F)c1)C1CCCc2[nH]c(=O)c3c(c21)CCCC3` (single isomer, unassigned) [Compound 50, 3-(3,4-Difluorophenyl)-1-ethyl-1-(6-oxo-1,2,3,4,5,6,7,8,9,10-decahydrophenanthridin-1-yl)urea] belongs 6.8 µM.
